The source of these data is patent US20100029761A1, “NOVEL COMPOUNDS, PHARMACEUTICAL COMPOSITIONS CONTAINING SAME, AND METHODS OF USE FOR SAME” (priority 2005, published 2010).

In one assay the test system is Raji cells. Particulars: cited from earlier work.
For assay [1], the target named is rat liver acyl-CoA synthetase. Particulars: read-out: 50% inhibition of rat liver acyl-CoA synthetase; cited from earlier work.
For assay [2], the system named is Mycobacterium tuberculosis. The conditions noted are these: in vitro; cited from earlier work.
Another assay has as its target viral HIV protease (Human immunodeficiency virus type 1 group M subtype B, UniProt P04585). Particulars: cited from earlier work.
Assay [3] deals with β-Oxidation of (1-14C) palmitic acid in cells. The assay is described as follows: β-Oxidation assay, isolation of acid soluble products. The assay is classed as cell-based. Further details: unit not given here. The procedure:
A 24 well plate with 1 ml per well was prepared with 2.5×10^5 cells /well. The cells were incubated O/N. The next day, a solubilized palmitate solution was prepared. 50 μls of (1−^14C) Palmitic acid was added to a 2 ml centrifuge tube and dried under nitrogen gas. 2 mls of α-CD (α-Cyclodextran)—10 mg/ml in 10 mM Tris were added. This solution was incubated in a 37° C. water bath for 30 minutes. A hot mix was prepared by adding 25 μl of this solution to 2.5 μls of 200 μM Carnitine and 222.5 μl of serum free medium that is used for cells. The cells were then treated with the test compound in triplicate, and incubated. at 37° C. for 60 minutes. The medium was removed and 250 μl of the hot mix were added. The test compound was added again, and further incubated at 37° C. for 60 minutes. The reaction was stopped with 50 μl of 2.6 N HClO4. The contents of the plate were transferred to a 1.5 ml centrifuge tube, and 50 μl of 4N KOH were then added, and the tube incubated in a 60° C. water bath for 30 min. Sodium acetate (1 M, 75 μl) and sulfuric acid (3N, 50 μl) were added to the solution and vortexed. The tube was spun for 7 minutes at 1000 rpm at room temperature. A portion (225 μl) was removed, and the following were added (vortex after each addition, twice at the end): 938 μl of 1:1 Chloroform: Methanol; 468 μl of Chloroform; 281 μl distilled Water. The tubes were spun at 1000 rpm for 5 minutes. The upper phase was removed into a large glass scintillation vial and 5 ml of Budget solvent (scintillation liquid) was added. The tubes were well vortexed. Finally, ^14C was counted for one minute.

Several values for one entry are separate records, joined by “and”; a condition that tells them apart may be missing. Identical values can stand only once.

With `CCCC=CCC=CC=CC=NN=NO` [Triacsin C, 1-hydroxy-3-(E, E, E-2′,4′,7′-undecatrienylidine) triazene], in the assay with Raji cells, the “concentration causing growth inhibition in Raji cells” value was 1.0 µM. The IC50 in assay [1] was 8.7 µM.
As for `C/C=C/C/C=C/CCC(=O)[C@H]1O[C@H]1C(N)=O` [cerulenin, (2s, 3R)-2,3-epoxy-4-oxo-7,10 dodecadienoyl amide], in assay [2], the “activity against Mycobacterium tuberculosis” value is recorded as “no activity”. Further, the “concentration for inhibition of viral HIV protease” value at viral HIV protease was 5 mg/mL.
For `CCCCCCCCC1OC(=O)C(O)=C1C(=O)OCC` (stereo not shown) [Compound 1], the Beta oxidation in assay [3] (0.04 ug/ml) is 94 and 103 and 120; in assay [3] (0.19 ug/ml), 108 and 104 and 113; in assay [3] (3.13 ug/ml) it was 113 and 109 and 107; in assay [3] (12.5 ug/ml), 114 and 107 and 100; in assay [3] (50 ug/ml), 54 and 49 and 45; in assay [3] (.78 ug/ml), 104 and 106.
